Results from US20220273683A1, “BORON-CONTAINING SMALL MOLECULES” (Bill & Melinda Gates Foundation, priority 2016, published 2022).
Values after ≈ are worked out from the molar mass of the structure shown.

How the values were obtained:
[1] = tested on: Staphylococcus aureus, MRSA (ATCC 33591); test: Antibacterial MIC assay (microbroth dilution, CLSI); type: cell-based; settings: 35° C., 16-20 hours
Excerpt: (§1) All MIC testing of bacteria followed the Clinical and Laboratory Standards Institute (CLSI) guidelines for antimicrobial testing of aerobic bacteria (Methods for Dilution Antimicrobial Susceptibility Tests for Bacteria that Grow Aerobically; Approved Standard—Tenth Edition, M07-A10; Performance Standards for Antimicrobial Susceptibility Testing; Twenty-fifth Informational Supplement, M100-S25).
(§2) Briefly, the microbroth dilution MIC method was used to quantitatively measure the in vitro antibacterial activity of a compound against a given bacterial isolate. The following bacterial strains were evaluated: Staphylococcus aureus, MRSA (ATCC 33591) and Streptococcus pneumoniae (ATCC 49619). Bacteria were grown in cation-adjusted Mueller-Hinton broth, with additions as required per species growth requirements (e.g. 3% lysed horse blood for fastidious organisms such as S. pneumoniae). A direct colony suspension in saline was prepared from colonies on an overnight agar plate to achieve a turbidity equivalent to 0.5 McFarland standard, which was subsequently diluted into the assay plate to achieve 5×10^5 CFU/mL. Assays plates were prepared by 2-fold dilution of compound across the plate and included a positive growth control.

[2] = tested on: Streptococcus pneumoniae (ATCC 49619); test: as above; type: cell-based; settings: 35° C., 16-20 hours; for MIC Streptococcus pneumoniae (ATCC 49619): 3% lysed horse blood
Excerpt: as §1, §2

SMILES | MIC Staphylococcus aureus, MRSA (ATCC 33591) [1] | MIC Streptococcus pneumoniae (ATCC 49619) [2] | MIC ([1]; Staphylococcus aureus) | MIC ([2]; Streptococcus pneumoniae, ATCC49619, 3% lysed horse blood)
C[C@@H]1CC[C@@]23CCC(=O)[C@H]2[C@]1(C)[C@H](OC(=O)COc1ccc2c(c1F)B(O)OC2)C[C@@](C)(CCC(=O)N1CCC(O)C1)[C@@H](O)[C@@H]3C (stereo partly drawn) [Compound 7, (3aR,4R,5R,7R,8S,9R,9aS,12R)-8-hydroxy-7-(3-(3-hydroxypyrrolidin-1-yl)-3-oxopropyl)-4,7,9,12-tetramethyl-3-oxodecahydro-4,9a-propanocyclopenta[8]annulen-5-yl2-((7-fluoro-1-hydroxy-1,3-dihydrobenzo[c][1,2]oxaborol-6-yl)oxy)acetate] | C (4-32 is C) | B (0.5-2 is B) | – | –
C[C@@H]1CC[C@@]23CCC(=O)[C@H]2[C@]1(C)[C@H](OC(=O)COc1ccc2c(c1F)B(O)OC2)C[C@@](C)(CCC(=O)N1CC[C@H](O)C1)[C@@H](O)[C@@H]3C [Compound 8, (3aR,4R,5R,7R,8S,9R,9aS,12R)-8-hydroxy-7-(3-((S)-3-hydroxypyrrolidin-1-yl)-3-oxopropyl)-4,7,9,12-tetramethyl-3-oxodecahydro-4,9a-propanocyclopenta[8]annulen-5-yl2-((7-fluoro-1-hydroxy-1,3-dihydrobenzo[c][1,2]oxaborol-6-yl)oxy)acetate] | C (4-32 is C) | B (0.5-2 is B) | – | –
C[C@@H]1CC[C@@]23CCC(=O)[C@H]2[C@]1(C)[C@H](OC(=O)COc1ccc2c(c1F)B(O)OC2)C[C@@]1(C)CC(O)O[C@H]1[C@@H]3C (stereo partly drawn) [Compound 9, (3aS,5R,6R,6aR,9aS,10R,10aS,13R)-2-hydroxy-3a,6,10,13-tetramethyl-7-oxododecahydro-6,9a-propanocyclopenta[6,7]cycloocta[1,2-b]furan-5-yl2-((7-fluoro-1-hydroxy-1,3-dihydrobenzo[c][1,2]oxaborol-6-yl)oxy)acetate] | C (4-32 is C) | C (4-32 is C) | – | –
C[C@@H]1CC[C@@]23CCC(=O)[C@H]2[C@]1(C)[C@H](OC(=O)COc1ccc2c(c1F)B(O)OC2)C[C@@](C)(Cc1ccccc1)[C@@H](O)[C@@H]3C [Compound 10, (3aR,4R,5R,7R,8S,9R,9aS,12R)-7-benzyl-8-hydroxy-4,7,9,12-tetramethyl-3-oxodecahydro-4,9a-propanocyclopenta[8]annulen-5-yl2-((7-fluoro-1-hydroxy-1,3-dihydrobenzo[c][1,2]oxaborol-6-yl)oxy)acetate] | A (MIC of ≤0.25 is A) | B (0.5-2 is B) | – | –
C[C@@H]1CC[C@@]23CCC(=O)[C@H]2[C@]1(C)[C@H](OC(=O)COc1ccc2c(c1F)B(O)OC2)C[C@@](C)(CCl)[C@@H](O)[C@@H]3C [Compound 11, (3aR,4R,5R,7R,8S,9R,9aS,12R)-7-(chloromethyl)-8-hydroxy-4,7,9,12-tetramethyl-3-oxodecahydro-4,9a-propanocyclopenta[8]annulen-5-yl2-((7-fluoro-1-hydroxy-1,3-dihydrobenzo[c][1,2]oxaborol-6-yl)oxy)acetate] | A (MIC of ≤0.25 is A) | B (0.5-2 is B) | – | –
C[C@@H]1CC[C@@]23CCC(=O)[C@H]2[C@]1(C)[C@H](OC(=O)COc1ccc2c(c1F)B(O)OC2)C[C@@](C)(/C=C/C(N)=O)[C@@H](O)[C@@H]3C [Compound 14, (3aR,4R,5R,7S,8S,9R,9aS,12R)-7-((E)-3-amino-3-oxoprop-1-en-1-yl)-8-hydroxy-4,7,9,12-tetramethyl-3-oxodecahydro-4,9a-propanocyclopenta[8]annulen-5-yl2-((7-fluoro-1-hydroxy-1,3-dihydrobenzo[c][1,2]oxaborol-6-yl)oxy)acetate] | B (0.5-2 is B) | B (0.5-2 is B) | – | –
CNC(=O)/C=C/[C@]1(C)C[C@@H](OC(=O)COc2ccc3c(c2F)B(O)OC3)[C@]2(C)[C@H](C)CC[C@]3(CCC(=O)[C@H]32)[C@@H](C)[C@@H]1O [Compound 15, (3aR,4R,5R,7S,8S,9R,9aS,12R)-8-hydroxy-4,7,9,12-tetramethyl-7-((E)-3-(methylamino)-3-oxoprop-1-en-1-yl)-3-oxodecahydro-4,9a-propanocyclopenta[8]annulen-5-yl2-((7-fluoro-1-hydroxy-1,3-dihydrobenzo[c][1,2]oxaborol-6-yl)oxy)acetate] | B (0.5-2 is B) | B (0.5-2 is B) | – | –
CONC(=O)/C=C/[C@]1(C)C[C@@H](OC(=O)COc2ccc3c(c2F)B(O)OC3)[C@]2(C)[C@H](C)CC[C@]3(CCC(=O)[C@H]32)[C@@H](C)[C@@H]1O [Compound 16, (3aR,4R,5R,7S,8S,9R,9aS,12R)-8-hydroxy-7-((E)-3-(methoxyamino)-3-oxoprop-1-en-1-yl)-4,7,9,12-tetramethyl-3-oxodecahydro-4,9a-propanocyclopenta[8]annulen-5-yl2-((7-fluoro-1-hydroxy-1,3-dihydrobenzo[c][1,2]oxaborol-6-yl)oxy)acetate] | C (4-32 is C) | B (0.5-2 is B) | – | –
C[C@@H]1CC[C@@]23CCC(=O)[C@H]2[C@]1(C)[C@H](OC(=O)COc1ccc2c(c1F)B(O)OC2)C[C@@](C)(/C=C/C(=O)NNC(=O)OC(C)(C)C)[C@@H](O)[C@@H]3C [Compound 17, tert-butyl 2-((E)-3-((3aR,4R,5R,7S,8S,9R,9aS,12R)-5-(2-((7-fluoro-1-hydroxy-1,3-dihydrobenzo[c][1,2]oxaborol-6-yl)oxy)acetoxy)-8-hydroxy-4,7,9,12-tetramethyl-3-oxodecahydro-4,9a-propanocyclopenta[8]annulen-7-yl)acryloyl)hydrazine-1-carboxylate] | – | – | 4 to 32 µg/mL (≈ 5.83 to 46.6 µM) | 0.5 to 2 µg/mL (≈ 0.728 to 2.91 µM)
C[C@@H]1CC[C@@]23CCC(=O)[C@H]2[C@]1(C)[C@H](OC(=O)COc1ccc2c(c1F)B(O)OC2)C[C@@](C)(/C=C/C(=O)NN)[C@@H](O)[C@@H]3C [Compound 18, (3aR,4R,5R,7S,8S,9R,9aS,12R)-7-((E)-3-hydrazinyl-3-oxoprop-1-en-1-yl)-8-hydroxy-4,7,9,12-tetramethyl-3-oxodecahydro-4,9a-propanocyclopenta[8]annulen-5-yl2-((7-fluoro-1-hydroxy-1,3-dihydrobenzo[c][1,2]oxaborol-6-yl)oxy)acetate] | C (4-32 is C) | B (0.5-2 is B) | – | –
CC[C@]1(C)C[C@@H](OC(=O)COc2ccc3c(c2F)B(O)OC3)[C@]2(C)[C@H](C)CC[C@]3(CCC(=O)[C@H]32)[C@@H](C)[C@@H]1O [Compound 19, (3aR,4R,5R,7R,8S,9R,9aS,12R)-7-ethyl-8-hydroxy-4,7,9,12-tetramethyl-3-oxodecahydro-4,9a-propanocyclopenta[8]annulen-5-yl2-((7-fluoro-1-hydroxy-1,3-dihydrobenzo[c][1,2]oxaborol-6-yl)oxy)acetate] | A (MIC of ≤0.25 is A) | B (0.5-2 is B) | – | –
C=CC[C@]1(C)C[C@@H](OC(=O)COc2ccc3c(c2F)B(O)OC3)[C@]2(C)[C@H](C)CC[C@]3(CCC(=O)[C@H]32)[C@@H](C)[C@@H]1O [Compound 21, (3aR,4R,5R,7R,8S,9R,9aS,12R)-7-allyl-8-hydroxy-4,7,9,12-tetramethyl-3-oxodecahydro-4,9a-propanocyclopenta[8]annulen-5-yl2-((7-fluoro-1-hydroxy-1,3-dihydrobenzo[c][1,2]oxaborol-6-yl)oxy)acetate] | A (MIC of ≤0.25 is A) | B (0.5-2 is B) | – | –
C#CC[C@]1(C)C[C@@H](OC(=O)COc2ccc3c(c2F)B(O)OC3)[C@]2(C)[C@H](C)CC[C@]3(CCC(=O)[C@H]32)[C@@H](C)[C@@H]1O [Compound 22, (3aR,4R,5R,7R,8S,9R,9aS,12R)-8-hydroxy-4,7,9,12-tetramethyl-3-oxo-7-(prop-2-yn-1-yl)decahydro-4,9a-propanocyclopenta[8]annulen-5-yl2-((7-fluoro-1-hydroxy-1,3-dihydrobenzo[c][1,2]oxaborol-6-yl)oxy)acetate] | A (MIC of ≤0.25 is A) | B (0.5-2 is B) | – | –
C[C@@H]1CC[C@@]23CCC(=O)[C@H]2[C@]1(C)[C@H](OC(=O)COc1ccc2c(c1F)B(O)OC2)C[C@@](C)(CO)[C@@H](O)[C@@H]3C [Compound 23, (3aR,4R,5R,7S,8S,9R,9aS,12R)-8-hydroxy-7-(hydroxymethyl)-4,7,9,12-tetramethyl-3-oxodecahydro-4,9a-propanocyclopenta[8]annulen-5-yl2-((7-fluoro-1-hydroxy-1,3-dihydrobenzo[c][1,2]oxaborol-6-yl)oxy)acetate] | A (MIC of ≤0.25 is A) | C (4-32 is C) | – | –
COC[C@]1(C)C[C@@H](OC(=O)COc2ccc3c(c2F)B(O)OC3)[C@]2(C)[C@H](C)CC[C@]3(CCC(=O)[C@H]32)[C@@H](C)[C@@H]1O [Compound 24, (3aR,4R,5R,7S,8S,9R,9aS,12R)-8-hydroxy-7-(methoxymethyl)-4,7,9,12-tetramethyl-3-oxodecahydro-4,9a-propanocyclopenta[8]annulen-5-yl2-((7-fluoro-1-hydroxy-1,3-dihydrobenzo[c][1,2]oxaborol-6-yl)oxy)acetate] | A (MIC of ≤0.25 is A) | C (4-32 is C) | – | –
